Measurements from PubChem BioAssay AID1259408 (Genetic Toxicology Data Bank (GENE-TOX), 2018).
The source made the active and inactive calls. No rule for the calls is given here.

System: GENE-TOX genotoxicity assays, various organisms and cells
Assay: GENE-TOX mutagenicity studies
Settings: for call: Assay Type: In vivo carcinogenicity studies
[1] = Species/Cell Type: Fischer rat embryo (RLV/1706) cells, Assay Type: Cell transformation, viral enhanced, Assay Code: CTR+, Evaluation Type: Evaluation A (Pre-1980)
[2] = Species/Cell Type: Human diploid fibroblasts, Assay Type: Unscheduled DNA synthesis (UDS) in vitro, DNA effects, Assay Code: UDH-, Evaluation Type: Evaluation A (Pre-1980)
[3] = Species/Cell Type: Mammalian polychromatic erythrocytes, Assay Type: Micronucleus test, chromosome aberrations, Assay Code: MNTT, Evaluation Type: Evaluation A (Pre-1980)
[4] = Species/Cell Type: Escherichia coli polA (W3119 vs P3478), Assay Type: Rec-assay, DNA effects (bacterial DNA repair), Assay Code: RE1+, Evaluation Type: Evaluation A (Pre-1980)
[5] = Species/Cell Type: Nonhuman, Assay Code: CCG+L, Evaluation Type: Evaluation A (Pre-1980)
[6] = Species/Cell Type: Saccharomyces cerevisiae, Assay Type: Mitotic recombination or gene conversion, Assay Code: YEH-, Evaluation Type: Evaluation A (Pre-1980)
[7] = Species/Cell Type: Salmonella typhimurium (one or more of the five standard strains: TA98, TA100, TA1535, TA1537, and TA1538), Assay Type: Histidine reverse gene mutation, Ames assay, Assay Code: SAL-, Evaluation Type: Evaluation A (Pre-1980)
[8] = Species/Cell Type: Salmonella typhimurium (one or more of the five standard strains: TA98, TA100, TA1535, TA1537, and TA1538), Assay Type: Histidine reverse gene mutation, Ames assay, Assay Code: SAL+*, Activation: With metabolic activation, Evaluation Type: Evaluation A (Pre-1980)
[9] = Species/Cell Type: Chinese hamster lung (V79) cells, Assay Type: Forward gene mutation at the HPRT or ouabain locus, Assay Code: V79+, Evaluation Type: Evaluation A (Pre-1980)
[10] = Species/Cell Type: Human lymphocytes, Assay Type: Sister-chromatid exchange (SCE) in vitro, Assay Code: SCL+D, Dose Response: With dose response, Evaluation Type: Evaluation B (Post-1980)
[11] = Species/Cell Type: Human, Assay Type: Sister-chromatid exchange (SCE) in vitro, Assay Code: SC1+D, Dose Response: With dose response, Evaluation Type: Evaluation B (Post-1980)
[12] = Species/Cell Type: Salmonella typhimurium (one or more of the five standard strains: TA98, TA100, TA1535, TA1537, and TA1538), Assay Type: Histidine reverse gene mutation, Ames assay, Assay Code: SALT, Evaluation Type: Evaluation A (Pre-1980)
[13] = Species/Cell Type: Drosophila melanogaster, Assay Type: Sex-linked recessive lethal gene mutation, Assay Code: SRL-, Evaluation Type: Evaluation A (Pre-1980)

Which mutagenic call [1] does the source give for `CCCCCc1cc(O)c2c(c1)OC(C)(C)[C@@H]1CCC(C)=C[C@@H]21` here?
The mutagenic call was “active; positive”.

And the mutagenic call [2]?
The mutagenic call was “inactive; negative”.

What about the mutagenic call (Species/Cell Type: Human lymphocytes or leukocytes, Assay Type: Chromosome aberrations in vivo, Assay Code: CY8-, Evaluation Type: Evaluation A (Pre-1980)) of the same molecule?
Its mutagenic call is “inactive; negative”.

What about the mutagenic call (Species/Cell Type: Human lymphocytes, Assay Type: Sister-chromatid exchange (SCE) in vivo, Assay Code: SCY+, Evaluation Type: Evaluation B (Post-1980)) of the same molecule?
The mutagenic call was “active; positive”.

And the mutagenic call (Species/Cell Type: Human, Assay Type: Sister-chromatid exchange (SCE) in vitro, Assay Code: SC1-, Evaluation Type: Evaluation A (Pre-1980))?
Its mutagenic call is “inactive; negative”.

And the mutagenic call (Species/Cell Type: Mammalian polychromatic erythrocytes, Assay Type: Micronucleus test, chromosome aberrations, Assay Code: MNT+, Evaluation Type: Evaluation B (Post-1980))?
The mutagenic call was “active; positive”.

And the mutagenic call [3]?
The mutagenic call was “no conclusion”.

What about the mutagenic call (Species/Cell Type: Mouse, Sex: Male, Assay Type: Sperm morphology, Assay Code: SPI+, Evaluation Type: Evaluation A (Pre-1980)) of the same molecule?
The mutagenic call was “active; positive”.

How did the mutagenic call (Species/Cell Type: Drosophila melanogaster, Assay Type: Sex-linked recessive lethal gene mutation, Assay Code: SRLT, Evaluation Type: Evaluation A (Pre-1980)) turn out when `N` was run?
Its mutagenic call is “no conclusion”.

Which mutagenic call (Species/Cell Type: Human diploid fibroblasts, Assay Type: Unscheduled DNA synthesis (UDS) in vitro, DNA effects, Assay Code: UDH+, Evaluation Type: Evaluation A (Pre-1980)) does the source give for `O/C=C/Cc1ccc2c(c1)OCO2` here?
Its mutagenic call is “active; positive”.

`COCCOc1cnc(NS(=O)(=O)c2ccccc2)nc1` was tested. Which mutagenic call (Species/Cell Type: Nonhuman, Assay Type: Sister-chromatid exchange (SCE) in vivo, Assay Code: SC3T, Evaluation Type: Evaluation B (Post-1980)) did it give?
Its mutagenic call is “no conclusion”.

How did the mutagenic call (Species/Cell Type: Arabidopsis species, Assay Type: Gene mutation, Assay Code: ARM+, Evaluation Type: Evaluation A (Pre-1980)) turn out when `CS(=O)(=O)OCCCl` was run?
The mutagenic call was “active; positive”.

What about the mutagenic call (Species/Cell Type: Drosophila melanogaster, Assay Type: Sex-linked recessive lethal gene mutation, Assay Code: SRL+, Evaluation Type: Evaluation A (Pre-1980)) of the same molecule?
The mutagenic call was “active; positive”.

And the mutagenic call (Species/Cell Type: Drosophila melanogaster, Sex: Male, Assay Type: Heritable translocation test, chromosome aberrations, Assay Code: DHT+, Evaluation Type: Evaluation A (Pre-1980))?
The mutagenic call was “active; positive”.

What about the mutagenic call (Species/Cell Type: Vicia faba, Assay Type: Chromosome aberrations, Assay Code: VIC+D, Dose Response: With dose response, Evaluation Type: Evaluation A (Pre-1980)) of the same molecule?
Its mutagenic call is “active; positive”.

What does the source list for `Cc1ccc(OC(=O)N(C)N=O)cc1C`?
mutagenic call (Species/Cell Type: Bacillus subtilis (H17 vs M45T), Assay Type: Rec-assay, spot test, DNA effects (bacterial DNA repair), Assay Code: REX+, Evaluation Type: Evaluation A (Pre-1980)): active; positive; mutagenic call (Species/Cell Type: Escherichia coli WP2, Assay Type: Tryptophan reverse gene mutation, Assay Code: WP2+, Evaluation Type: Evaluation A (Pre-1980)): active; positive

Which results are given for `N=C1C=CC(=C(c2ccc(N)cc2)c2ccc(N)cc2)C=C1`?
mutagenic call [4]: active; positive; mutagenic call [1]: active; positive; mutagenic call (Species/Cell Type: Mouse (BALB/c-3T3) cells, Assay Type: Cell transformation, Assay Code: CTB+D, Dose Response: With dose response, Evaluation Type: Evaluation A (Pre-1980)): active; positive; call [5]: active; positive; mutagenic call [6]: inactive; negative; mutagenic call [7]: inactive; negative; mutagenic call (Species/Cell Type: Salmonella typhimurium, Assay Type: Forward and reverse gene mutation, host-mediated assay, Assay Code: HMA-, Evaluation Type: Evaluation A (Pre-1980)): inactive; negative; mutagenic call (Species/Cell Type: Syrian hamster embryo (SHE) cells, Assay Type: Cell transformation, clonal assay, Assay Code: CTCT, Evaluation Type: Evaluation A (Pre-1980)): no conclusion

Which mutagenic call [8] does the source give for `CC1C=Cc2c1ccc1c2ccc2ccccc21` (centres undefined) here?
The mutagenic call was “active; positive”.

How did the mutagenic call [9] turn out when `CCCN(C)N=O` was run?
Its mutagenic call is “active; positive”.

What does the source list for `CC(C)NCCCNc1c2ccccc2nc2cccc([N+](=O)[O-])c12`?
mutagenic call (Species/Cell Type: Human lymphocytes, Assay Type: Sister-chromatid exchange (SCE) in vitro, Assay Code: SCL+, Evaluation Type: Evaluation A (Pre-1980)): active; positive; mutagenic call (Species/Cell Type: Human, Assay Type: Sister-chromatid exchange (SCE) in vitro, Assay Code: SC1+, Evaluation Type: Evaluation A (Pre-1980)): active; positive

Which mutagenic call (Species/Cell Type: Chinese hamster lung (V79) cells, Assay Type: Forward gene mutation at the HPRT or ouabain locus, Assay Code: V79-, Evaluation Type: Evaluation A (Pre-1980)) does the source give for `OC1c2cccc3ccc4cc5ccccc5c(c4c23)C1O` (centres undefined) here?
Its mutagenic call is “inactive; negative”.

Which results are given for `O=c1[nH]c(=O)n([C@H]2C[C@H](O)[C@@H](CO)O2)cc1CO`?
mutagenic call [10]: active; positive; mutagenic call [11]: active; positive

`NCCNc1cccc2ccccc12` was tested. Which call (Species/Cell Type: Nonhuman, Assay Code: CCG-, Evaluation Type: Evaluation A (Pre-1980)) did it give?
Its call is “inactive; negative”.

For `Nc1c(O)c(S(=O)(=O)O)cc2cc(S(=O)(=O)O)ccc12`, which mutagenic call (Species/Cell Type: Rodents, Sex: Male, Assay Type: Dominant lethal test, Assay Code: DLT-, Evaluation Type: Evaluation A (Pre-1980)) is on record?
Its mutagenic call is “inactive; negative”.

Which call [5] does the source give for `COCCl` here?
The call was “active; positive”.

What about the mutagenic call (Species/Cell Type: Syrian hamster embryo (SA7/SHE) cells, Assay Type: Cell transformation, viral enhanced, Assay Code: CT7+, Evaluation Type: Evaluation A (Pre-1980)) of the same molecule?
The mutagenic call was “active; positive”.

Which mutagenic call (Species/Cell Type: Bacillus subtilis (H17 vs M45), Assay Type: Rec-assay, spot test, DNA effects (bacterial DNA repair), Assay Code: REWT, Evaluation Type: Evaluation A (Pre-1980)) does the source give for `O=S(=O)(O)c1ccc(N=Nc2c(O)ccc3ccccc23)cc1` here?
The mutagenic call was “no conclusion”.

And the mutagenic call [12]?
The mutagenic call was “no conclusion”.

How did the mutagenic call (Species/Cell Type: Allium cepa, Assay Type: Chromosome aberrations, Assay Code: ALC+, Evaluation Type: Evaluation A (Pre-1980)) turn out when `O=C(O)COc1ccc(Cl)cc1Cl` was run?
Its mutagenic call is “active; positive”.

What about the mutagenic call (Species/Cell Type: Bacillus subtilis (H17 vs M45), Assay Type: Rec-assay, spot test, DNA effects (bacterial DNA repair), Assay Code: REW+, Evaluation Type: Evaluation A (Pre-1980)) of the same molecule?
The mutagenic call was “active; positive”.

And the mutagenic call [9]?
Its mutagenic call is “active; positive”.

And the mutagenic call (Species/Cell Type: Drosophila melanogaster, Assay Type: Aneuploidy, sex chromosome gain, chromosome aberrations, Assay Code: DAG-M-F, Evaluation Type: Evaluation A (Pre-1980))?
The mutagenic call was “inactive; negative”.

And the mutagenic call (Species/Cell Type: Drosophila melanogaster, Assay Type: Aneuploidy, whole sex chromosome loss, chromosome aberrations, Assay Code: DAC-M-F, Evaluation Type: Evaluation A (Pre-1980))?
Its mutagenic call is “inactive; negative”.

And the mutagenic call [13]?
The mutagenic call was “inactive; negative”.

And the mutagenic call (Species/Cell Type: Escherichia coli WP2 UVRA, Assay Type: Tryptophan reverse gene mutation, Assay Code: WPU-*, Activation: With metabolic activation, Evaluation Type: Evaluation A (Pre-1980))?
Its mutagenic call is “inactive; negative”.

What about the mutagenic call [4] of the same molecule?
Its mutagenic call is “active; positive”.

And the mutagenic call [2]?
The mutagenic call was “inactive; negative”.

And the mutagenic call (Species/Cell Type: Human lymphocytes or leukocytes, Assay Type: Chromosome aberrations in vitro, Assay Code: CY7+, Evaluation Type: Evaluation A (Pre-1980))?
Its mutagenic call is “active; positive”.

What about the mutagenic call [10] of the same molecule?
Its mutagenic call is “active; positive”.

What about the mutagenic call [11] of the same molecule?
Its mutagenic call is “active; positive”.

What about the mutagenic call [3] of the same molecule?
Its mutagenic call is “no conclusion”.

What about the mutagenic call (Species/Cell Type: Nonhuman bone marrow, Assay Type: Chromosome aberrations, in vivo, Assay Code: CY#+, Evaluation Type: Evaluation A (Pre-1980)) of the same molecule?
The mutagenic call was “active; positive”.

And the call (Species/Cell Type: Nonhuman, Assay Code: CCGT, Evaluation Type: Evaluation A (Pre-1980))?
The call was “no conclusion”.

What about the mutagenic call (Species/Cell Type: Saccharomyces cerevisiae, Assay Type: Mitotic recombination or gene conversion, Assay Code: YEC+, Evaluation Type: Evaluation A (Pre-1980)) of the same molecule?
Its mutagenic call is “active; positive”.

And the mutagenic call (Species/Cell Type: Saccharomyces cerevisiae, Assay Type: Mitotic recombination or gene conversion, Assay Code: YEH+, Evaluation Type: Evaluation A (Pre-1980))?
Its mutagenic call is “active; positive”.

And the mutagenic call [6]?
Its mutagenic call is “inactive; negative”.

What about the mutagenic call [7] of the same molecule?
Its mutagenic call is “inactive; negative”.

What about the mutagenic call [12] of the same molecule?
Its mutagenic call is “no conclusion”.

And the mutagenic call (Species/Cell Type: Salmonella typhimurium, Saccharomyces cerevisiae, Assay Type: Forward and reverse gene mutation, mitotic recombination and gene conversion, DNA effects, host-mediated assay, Assay Code: HM3-, Evaluation Type: Evaluation A (Pre-1980))?
Its mutagenic call is “inactive; negative”.

And the mutagenic call (Species/Cell Type: Vicia faba, Assay Type: Chromosome aberrations, Assay Code: VIC+, Evaluation Type: Evaluation A (Pre-1980))?
The mutagenic call was “active; positive”.

For `O=C(CCl)c1ccccc1`, which mutagenic call [13] is on record?
The mutagenic call was “inactive; negative”.

Which mutagenic call [12] does the source give for `CC(=O)Nc1ccc(CCc2ccccc2)cc1` here?
The mutagenic call was “no conclusion”.

With `C=CCN(CC=C)N=O` as the molecule, how does the mutagenic call [8] read?
Its mutagenic call is “active; positive”.

How did the mutagenic call [12] turn out when `Cc1cccc2c1ccc1c3c(ccc12)C(=O)CC3` was run?
Its mutagenic call is “no conclusion”.
